Experimental data from US9750778B2, “Terminalia chebula and Terminalia bellirica extracts for inhibition of xanthine oxidase” (priority 2013, dated 2017).
Where “and” joins values, the source holds several entries; their conditions need not be identical. Identical values can stand only once. Marks after values point to notes of the source that are not given here.

Legend:
[1] = system: serum uric acid levels in patients with hyperuricemia; assay: Randomized, double blind, placebo controlled clinical study on serum uric acid levels; assay type: in vivo, human; details: extracts 500 mg BID oral, febuxostat 40 mg OD, Mean±SD
Protocol: A randomized, double blind, placebo controlled, parallel-group study was performed to evaluate the effect of Terminalia chebula and Terminalia bellerica in comparison to Febuxostat and a placebo on serum uric acid levels in patients with hyperuricemia. The present study was a prospective, randomized, double blinded, placebo controlled trial. A total of 52 patients were enrolled to receive the study treatment in a randomized manner. The study was approved by the Institutional Ethics Committee and all the subjects gave written informed consent prior to their participation in the study. Hyperuricemia patients of either gender aged between 18 and 70 years were selected, with serum uric acid level ≧6.0 mg/dL and ≦12.0 mg/dL after having stopped all uric acid-lowering therapy for at least 10 days. Patients who were willing to comply with the requirements of the study and to give voluntary, written informed consent were enrolled into the study. Patients with a gout flare during screening or baseline visit were excluded. Patients currently using aspirin or other NSAIDS, diuretics, other medications with known urate-lowering effects were also excluded from the study. Patients with history or presence of nephrolithiasis or uncontrolled hypertension or diabetes, hepatic and renal impairment, pregnant or lactating females or secondary hyperuricemia (e.g. due to myeloproliferative disorder, or organ transplant) were excluded. After screening, all the eligible patients were randomized to either of the four treatment groups in a double blinded fashion for duration of 8 weeks, prospectively 12 weeks. Group 1—Terminalia chebula 500 mg—1 capsule of 500 mg orally twice a day (BID) after food. Group 2—Terminalia bellerica 500 mg—1 capsule of 500 mg orally twice a day (BID) after food. Group 3—Febuxostat—1 tablet of 40 mg (encapsulated in a similar capsule to that of Terminalia chebula/Terminalia bellerica/placebo capsules) once daily (OD) orally in the morning after food and an identical placebo capsule in the evening after food. […] At each visit they were evaluated for efficacy measurements and safety assessments. Serum uric acid levels were measured at baseline, end of 4 weeks, and end of 8 weeks. […] The subsequent 2 visits were scheduled at 4 weeks interval (visit 3—after 4 weeks of treatment, visit 4—after 8 weeks of treatment), vital signs, general examination; serum uric acid levels were measured. Pill count for study medication was evaluated. […] Study data is expressed as Mean±SD. Primary and secondary outcome measures were analyzed as the mean percentage reduction and absolute change in serum uric acid levels from baseline to 4 weeks, 8 weeks, and (prospectively) 12 weeks of treatment. […]

hyperuricemic patients = assay: Safety and tolerability assessment in the clinical study; assay type: in vivo, human; details: 8 weeks treatment; 13 patients per group; extracts 500 mg BID, febuxostat 40 mg OD
Protocol: Secondary objective: To evaluate the safety and tolerability of Terminalia chebula and Terminalia bellerica in hyperuricemic patients.
Safety lab investigations for hematological, hepatic and renal biochemical parameters were done at baseline and at the end of the study (8 weeks) and also as and when required (in case of any adverse drug reaction (ADR)). Subjects were interviewed for the presence of ADR and the same was recorded in the case report form (CRF). Compliance to therapy was assessed by pill count method.
The subsequent 2 visits were scheduled at 4 weeks interval (visit 3—after 4 weeks of treatment, visit 4—after 8 weeks of treatment), vital signs, general examination; serum uric acid levels were measured. Pill count for study medication was evaluated. At the (prospective) conclusion of the study, Visit 5 (after 12 weeks post treatment), vital signs, general examination, serum uric acid, routine safety lab investigations will be performed. […] Adverse Effects/SAE monitoring would be done throughout the course of study. Safety lab parameters will be done before and after treatment and as and when required. […]
2. Measurements of Tolerability will be assessed at the end of 8 weeks/12 weeks as: Good—no side effects; Fair—mild to moderate side effects; and/or Poor—severe side effects and withdrawal of therapy.

xanthine oxidase (XO) = assay: Superoxide radical scavenging assay by NBT hypoxanthine/XO method; assay type: biochemical; details: for % Control (superoxide generation by XO): water blank = 100
Protocol: One T. chebula (TC) based extract was tested at three different dilutions of 5, 25 and 50 μg/mL, and one T. bellerica (TB) based extract was tested at the same three dilutions. Standard positive control was allopurinol (AP) tested at 1, 5 and 10 μg/mL. […] Stock solutions of test materials were prepared at 20 mg/ml in water (TB and TC) or immediately prior to the experiment. Further dilutions were made in type I sterile water and the effect of test materials on XO-mediated free radical (superoxide) generation was assessed as previously described ([…] al., 2008), using hypoxanthine/XO/NBT (tetrazolium salt) system with the reaction product (formazan) followed at 570 nm with the BioRad microplate spectrophotometer 3550-UV. Allopurinol (AP) was the positive control, double-distilled water was the negative control (blank). P values representing statistical significance were calculated using paired t-test and threshold of statistical significance was fixed at p=0.05 and at least 15% difference as compared to the water control.

maltase = details: reversible and non-competitive inhibitor; read-out: K(i) value, maltase; cited from earlier work
COX-1 = details: cited from earlier work
5-LOX = details: cited from earlier work
COX-2 = target: T1, COX-2 (Homo sapiens, UniProt P35354); details: cited from earlier work
T1 sequence (P35354 18-604): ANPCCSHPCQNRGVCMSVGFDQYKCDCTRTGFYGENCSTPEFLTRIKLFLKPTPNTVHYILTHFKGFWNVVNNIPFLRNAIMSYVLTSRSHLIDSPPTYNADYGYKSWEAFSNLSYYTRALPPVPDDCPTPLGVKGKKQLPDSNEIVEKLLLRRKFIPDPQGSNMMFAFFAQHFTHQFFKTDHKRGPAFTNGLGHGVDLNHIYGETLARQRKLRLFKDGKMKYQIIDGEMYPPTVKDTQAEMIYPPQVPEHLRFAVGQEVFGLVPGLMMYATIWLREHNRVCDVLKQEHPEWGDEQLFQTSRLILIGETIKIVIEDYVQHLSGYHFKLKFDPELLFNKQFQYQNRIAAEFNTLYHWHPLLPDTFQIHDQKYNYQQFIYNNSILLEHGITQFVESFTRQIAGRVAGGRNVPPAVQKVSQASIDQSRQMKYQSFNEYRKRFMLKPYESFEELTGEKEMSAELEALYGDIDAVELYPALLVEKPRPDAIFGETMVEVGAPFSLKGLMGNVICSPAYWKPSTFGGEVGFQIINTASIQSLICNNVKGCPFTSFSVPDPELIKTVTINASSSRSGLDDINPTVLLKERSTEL

HepG2 cells = details: cited from earlier work
[2] = from baseline, negative = decrease

**Q.** For Cc1nc(-c2ccc(OCC(C)C)c(C#N)c2)sc1C(=O)O [Febuxostat], which “Serum Uric Acid level at the end of 4 weeks” value ([1]; 13 patients per group) is on record?
**A.** Its value is 7.23 ± 0.72 mg/dL.

**Q.** What about the “Serum Uric Acid level at the end of 8 weeks” value ([1]; 13 patients per group) of the same molecule?
**A.** The value was 6.08 ± 0.6 mg/dL.

**Q.** What about the “Mean Percentage Reduction in Serum Uric Acid Level after 8 weeks” value [1, 2] of the same molecule?
**A.** The value was −29.58 ± 5.74 %.

**Q.** What about the “Mean Percentage Reduction in Serum Uric Acid at the end of 4 weeks” value [1, 2] of the same molecule?
**A.** Its value is −16.31 ± 5.32*^NS %.

**Q.** What about the Adverse effects reported (hyperuricemic patients) of the same molecule?
**A.** Its Adverse effects reported is “Two patients in the Febuxostat group had elevated mildly elevated total bilirubin and 1 patient had complained of nausea and vomiting”.

**Q.** Which “ED50 (dose required for 50% inhibition of XO)” value (xanthine oxidase (XO)) does the source give for Oc1ncnc2[nH]ncc12 [AP, allopurinol] here?
**A.** The value was 6 µg/mL.

**Q.** And the “% Control (superoxide generation by XO)” value (xanthine oxidase (XO); test material at 1 μg/ml)?
**A.** Its value is 89%.

**Q.** What about the “% Control (superoxide generation by XO)” value (xanthine oxidase (XO); test material at 5 μg/ml) of the same molecule?
**A.** The value was 54%.

**Q.** What about the “% Control (superoxide generation by XO)” value (xanthine oxidase (XO); test material at 10 μg/ml) of the same molecule?
**A.** The value was 43%.

**Q.** Which results are given for “beta-1-O-galloyl-2,4-chebuloyl-3,6-(R)-hexahydroxydiphenoyl-D-glucose [Chebulagic acid]”?
**A.** Ki (maltase): 6.6 µM; IC50 (COX-1): 15 ± 0.288 µM; IC50 (5-LOX): 2.1 ± 0.057 µM; IC50 (COX-2): 0.92 ± 0.011 µM; Enhancement of the cytotoxicity of doxorubicin (HepG2 cells): 20 fold
